# Counter-ions that a name gives are not always drawn.
# How the values were obtained:
# [1] = 72 h after intratumoral injection, 6 mg/kg, CT26 mice
# Method: Experimental method: Mice were transplanted with mouse colon cancer (CT26) tumor on their backs, and randomly divided to 3 groups with 3 mice in each group for the study of drug distribution behavior. • Group 1: The mice were intratumorally injected with the micromolecule imiquimod hydrochloride with an injection dose of 6 mg/kg; • Group 2: The mice were intratumorally injected with imiquimod nano-particles (with average particle size of about 100 nm) encapsulated with polylactic-glycolic acid copolymer (PLGA) with an injection dose of 6 mg/kg; and • Group 3: The mice were intratumorally injected with imiquimod microparticles (the present formulation) with an injection dose of 6 mg/kg.
# in vivo [2] = conditions: mouse, whole blood, 6 mg/kg
# Method: Water-insoluble R837 powder was prepared into microparticles with a particle size of 1-3 microns, which were intratumorally injected and then monitored for the pharmacokinetics and intratumoral retention time.
# Experimental method: Mice were transplanted with mouse colon cancer (CT26) tumor on their backs, and randomly divided to 3 groups with 3 mice in each group for the pharmacokinetic study.
# Group 1: The mice were intratumorally injected with micromolecule imiquimod hydrochloride with an injection dose of 6 mg/kg.
# Group 2: The mice were intratumorally injected with imiquimod/PLGA nano-particles (with an average particle size of about 100 nm) with an injection dose of 6 mg/kg.
# Group 3: The mice were intratumorally injected with imiquimod microparticles (the present formulation) with an injection dose of 6 mg/kg.
# in vivo [3] = conditions: mouse, whole blood
# From the text: Mice were inoculated with CT26 tumor cells on their back to establish a CT26 subcutaneous tumor model of mice. Mice with the same tumor size were equally divided to 3 groups with 3 mice in each group.
# mouse colon CT26 tumor = test: Oxaliplatin chemotherapy combined with imiquimod micro-formulation, in-situ and distal tumor growth; format: in vivo, mice; conditions: intratumoral injection, chemotherapeutic alone
# Method: The length and width of the tumor in mice were regularly measured, and the volume of tumor was calculated as follows: (length×(width) 2)/2.
# [4] = Platinum in blood and organs (ICP-MS) after intratumoral oxaliplatin with or without imiquimod suspension; conditions: platinum in blood after intratumoral injection
# From the text: Mice were inoculated with colon cancer (CT26) tumor cells on the back of the tumor in mice to establish a subcutaneous tumor model in mice.
# [5] = tested on: colon cancer (CT26) tumors; test: Oxaliplatin in combination with micron-sized imiquimod suspension, two-sided tumor model; format: in vivo, mice; conditions: Day 15 after treatment; 30 μL intratumoral; oxaliplatin 4 mg/mL, imiquimod 6 mg/mL
# Method: Mice were inoculated with different amounts of colon cancer (CT26) tumors on both sides of the back in mice (the inoculated amount on the left side was ⅕ of that on the right side) to establish a subcutaneous two-sided tumor model, wherein the tumor on the right side was deemed an in-situ tumor, and that on the left right was deemed a distal tumor. Once the in-situ tumors reached a size of about 100 mm^3, the mice were randomly divided into 4 groups, which were treated respectively.
# On Day 1 of the treatment, the in-situ tumor was administered by intratumoral injection, wherein the concentration of oxaliplatin was 4 mg/mL, and the concentration of imiquimod was 6 mg/mL. After administration, the tumor volume in mice was recorded to plotted a growth curve of ice.
# tumor cells = test: Micron-sized imiquimod suspension in combination with ethanol ablation, subcutaneous tumor model; format: in vivo, mice; conditions: imiquimod suspension 12 mg/mL peritumoral; absolute ethanol 30 μL intratumoral
# From the text: First, a subcutaneous tumor model in mice was established. In particular, mice were inoculated with tumor cells on their back. Once the tumors grew to a volume of 100 mm^3, the mice were randomly divided into 5 groups with 5 mice in each group.
# The mice were monitored for the changes in tumor volumes, and the curves of tumor growth were plotted.
compound,measurement,setting,value
"CC(C)Cn1cnc2c(N)nc3ccccc3c21 [Micromolecule imiquimod hydrochloride, imiquimod hydrochloride]",Retention of imiquimod in tumor and main organs (FIG. 3),[1],extremely low overall retention
same,Blood concentration of drug,at 48 h and 72 h after intratumoral injection 6 mg/kg,below the limit of detection
same,Average Retention Time,"intratumoral injection 6 mg/kg, CT26 mice, average of 3",11 h
same,half-life,in vivo [2],12 h
same,AUC,in vivo [3],140 ng·h/mL
same,Cmax,in vivo [3],17.4 ng/mL
same,Tmax,in vivo [3],0.5 h
same,half-life,in vivo [3],7.7 h
"O=C1[O][Pt]2([NH][C@@H]3CCCC[C@H]3[NH]2)[O]C1=O [OXA, oxaliplatin]",Growth of distal tumors (FIG. 11),mouse colon CT26 tumor,does not produce significant inhibitory effect
same,Growth of in-situ tumors (FIG. 10),mouse colon CT26 tumor,can inhibit the growth of in-situ tumors
same,Tmax (H),[4],3 H
same,"Tumor Inhibition Rate, Distant tumor",[5],41.87%
same,"Tumor Inhibition Rate, In-situ tumor",[5],69.56%
"CCO [absolute ethanol, ethanol]",Tumor growth / tumor volumes (FIG. 14),tumor cells,not highly different from those of the control group

# — patent US20240050560A1, “SELF-SUSTAINED RELEASE IMMUNE ADJUVANT SUSPENSION, PREPARATION METHOD THEREFOR, AND USE THEREOF” (priority 2020, published 2024)
